The source of these data is the METLIN SMRT retention time set (Domingo-Almenara et al. 2019).

The nature of this series: gradient 5% acetonitrile 3 min, to 50% in 2 min, to 85% in 15 min, held 3 min, 100 µL/min. The following applies: column: Zorbax Extend-C18 2.1 x 50 mm; eluents: water / acetonitrile, 0.1% formic acid. In short, it runs like this: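 The mobile phases were water and acetonitrile, each with 0.1% formic acid, pumped at 100 μL/min through a Zorbax Extend-C18 column (2.1 × 50 mm, 1.8 μm). Pure standards were injected as mixtures of ~100 molecules and detected by a quadrupole time-of-flight mass spectrometer in positive and negative ionization mode. Retention time came from computationally picked adduct peaks, each inspected by hand.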
Compound `CCN1c2ccccc2C(=O)NC12CCN(C(=O)Nc1ccc(C)c(C)c1)CC2` returned an RP-LC retention time of 860 s. To `CN(Cc1nc2ccccc2n1Cc1ccccc1F)C(=O)c1ccco1` belongs 719 s. For `CN(C)S(=O)(=O)c1ccc(C(=O)N2CCCC(c3nnc(-c4cccs4)o3)C2)cc1` (stereo unspecified) the value was 714 s.

Compound `COc1ccc(NC(=O)COc2cc(C)nc(N3CCN(c4ccccc4)CC3)n2)cc1` had an RP-LC retention time of 781 s.

Compound `Cc1sc(-c2cc(C(F)(F)F)[nH]n2)cc1S(=O)(=O)N1CCCCCC1` registered an RP-LC retention time of 1110 s. To `COc1cc(NC(=O)N2CCC(C)(C(=O)NCc3ccc(F)cc3)CC2)cc(OC)c1OC` belongs 737 s. Compound `O=C(c1cn(-c2cc(N3CCCCC3)ncn2)cn1)N1CCN(C(=O)c2ccco2)CC1` showed an RP-LC retention time of 675 s.

On to `CCCCNC(=O)C1c2ccccc2C(=O)N(C)C1c1cccs1` (stereo unspecified), for which the RP-LC retention time stood at 775 s. To `CCNc1ncnc2sc3c(c12)CCN(Cc1ccncc1)C3` belongs 659 s. On to `CCN(C(=O)C1CCCN1S(=O)(=O)c1cc2c(cc1C)NC(=O)C(C)O2)c1ccccc1` (stereo unspecified), for which the RP-LC retention time was found to be 814 s. To `COc1ccccc1-c1nnc(Nc2nc3ccc(SC)cc3s2)o1` belongs 830 s; to `Cc1ccccc1NC(=O)CN1C(=O)C2CCCCN2c2ccc(S(=O)(=O)N(C)C)cc21` (stereo unspecified), 607 s; to `Cc1cc(Cl)ccc1NC(=O)Cn1cccc1-c1nnc(C2CC2)o1`, 904 s. For `COc1ccc(C)cc1NC(=O)N1CCC(OC2CCN(S(C)(=O)=O)CC2)CC1` the value was 810 s. Compound `O=C(CCCN1CCN(Cc2ccc(F)cc2)C(=O)C1=O)NCc1ccc(F)cc1` had an RP-LC retention time of 721 s. For `COc1ccc(OCC(=O)Nc2c(C(=O)N3CCN(c4ccccn4)CC3)oc3ccccc23)cc1` the value was 741 s. To `CCCN1C(=O)c2c(C(=O)NCc3ccc(OC(C)C)cc3)ncn2CC1(C)C(=O)NC1CCCC1` (stereo unspecified) belongs 923 s; to `COCCN1C(=O)CCc2cc(NC(=O)CC3CCCCC3)ccc21`, 814 s; to `Cc1cc(-c2nnc(C3CC3)o2)c(C)n1CC(=O)Nc1cccc(F)c1`, 825 s. For `Cc1ccc(NC(=O)N2CCCCC2)cc1[N+](=O)[O-]` the value was 916 s. For `CN(CCc1ccc(Cl)c(Cl)c1)CCN1CCCC1`, the RP-LC retention time stood at 646 s. To `COc1ccc(-c2nnc(COc3ccc(NS(C)(=O)=O)cc3)o2)cc1` belongs 762 s; to `Cc1ccc(NC(=O)N2CCC(n3cnnc3C3CC3)C2)c(Cl)c1` (stereo unspecified), 663 s; to `CCCCNC(=O)c1cn(-c2ccc(NC(=O)CC)cn2)cn1`, 678 s.

Regarding `Cc1ccc(Cl)cc1NC(=O)Cn1ncc2c(c1=O)N(CC1CC1)C(=O)CS2`, the RP-LC retention time is 860 s. For `Cn1ncc2c(N3CCOCC3)nc(C(=O)NCc3cccs3)nc21` the value was 686 s; for `Cc1cccc(NC(=O)N2CCC(CN3CCCC(C)C3)CC2)c1C` (stereo unspecified), 620 s; for `Cc1csc(NC(=O)C2CCCN(S(=O)(=O)c3c[nH]c(C(=O)N4CCCC4)c3)C2)n1` (stereo unspecified), 714 s. To `CCNc1cc(C)nc(N2CCN(C(=O)c3ccccc3Cl)CC2)n1` belongs 576 s; to `CC1=C2C3OC(=O)C(C)C3CCC2(C)C=C(Cl)C1=O` (stereo unspecified), 914 s.

Compound `CC(C)NC(=O)c1ccc(OCC2CCN(C(=O)c3ccc(F)cc3F)CC2)cc1` registered an RP-LC retention time of 854 s. For `CCn1nccc1-c1cccc(-c2noc(-c3ccc(F)c(F)c3)n2)c1` the value was 1270 s; for `CCCCN(C)C(=O)C1CCCN(c2nnc(C)c3c(C)n(-c4ccc(Cl)cc4)nc23)C1` (stereo unspecified), 782 s.

In turn, `COc1ccc(CN2CCC3(CC2)CC(O)CCO3)c(OC)c1` (stereo unspecified) had an RP-LC retention time of 581 s. Consider `Cc1csc(-c2ccc(CNC(=O)c3ccoc3)cc2)n1`, for which the RP-LC retention time came out at 781 s. To `O=C(c1ccccc1F)N1CCC(CNC(=O)C2(c3ccccc3)CCOCC2)CC1` belongs 706 s; to `O=C(NCc1nc(-c2ccc(N3CCCCCC3)cc2)no1)c1ccco1`, 1020 s; to `O=C(O)c1ccc(N2CCCCC2)cc1O`, 828 s. The compound `Clc1ccccc1-c1nnc(SCc2cccnc2)o1` registered an RP-LC retention time of 621 s. To `CCn1c(=O)c(C)nc2cc(-c3noc(C4CC(=O)N(c5ccc(C)cc5)C4)n3)ccc21` (stereo unspecified) belongs 884 s; to `Cc1nn(CC(=O)NC(C)C)c(=O)c2nc(-c3ccccc3)sc12`, 733 s. For `O=C(NCC1CCN(C(=O)c2cc3ccccc3o2)CC1)c1cc(-c2ccccc2)on1` the value was 903 s. To `CC(C)CC(=O)N1CCN(c2nc(CN3CCOCC3)cs2)CC1` belongs 590 s; to `Cn1nc(C(=O)N2CCCC(C(=O)NC3CC3)C2)c2c1CCN(C(=O)Cc1ccc(Cl)cc1)C2` (stereo unspecified), 693 s. Turning to `O=C1C2N=NN(c3ccc(F)cc3)C2C(=O)N1c1ccccc1` (stereo unspecified), the RP-LC retention time was determined as 914 s. To `O=C(NCc1ccc2c(c1)OCO2)c1ccc2c(c1)N(CC(=O)N1CCCC1)C(=O)CO2` belongs 674 s; to `O=C(NCC1CC1)c1cn(-c2ccc(S(=O)(=O)N3CCCC3)cn2)cn1`, 762 s; to `O=C(NCc1noc(-c2ccc(F)cc2)n1)C1CCC1`, 774 s. To `COCCCNC(=O)CN1C(=O)CC(c2ccc(Br)s2)=Nc2ccccc21` belongs 849 s; to `O=C(Cn1nc(C2CC2)cc1C(=O)N1CCCC1)Nc1ccccc1Cl`, 815 s.

`O=S(=O)(Cc1nc(-c2ccc(Br)cc2)no1)c1ccccc1` registered an RP-LC retention time of 1040 s. On to `O=C(Cn1cccc1-c1nnc(C2CC2)o1)Nc1ccc(F)c(Cl)c1`, for which the RP-LC retention time turned out to be 908 s. The compound `CCCn1c(C)cnc1C1CCN(S(=O)(=O)c2ccc3c(c2)CCC3)C1` (stereo unspecified) showed an RP-LC retention time of 564 s. For `CCCN1CCN(c2cc(C(=O)O)c3cc(NS(=O)(=O)c4cc(F)ccc4F)ccc3n2)CC1` the value was 618 s. To `O=C(c1cccc(Cl)c1)N1CCN(c2cc(-c3ccccc3)[nH]n2)CC1` belongs 763 s; to `Cc1ccc(Nc2c(-c3ccc(C)cc3)nc3nc(C)cc(C)n23)cc1`, 780 s. To `CCCc1noc(-c2ccnc(-n3ncc(C(=O)NC4CC4)c3C)c2)n1` belongs 839 s; to `Nc1sc(SCC(=O)NCc2ccc(F)cc2)nc1-c1ccccc1`, 796 s; to `C=CCCC1(C2=CCCCC2)C(=O)NC(=O)NC1=O`, 804 s. On to `CCNC(=O)c1sc2nc(-c3ccc(OC)cc3)c(NCCOC)n2c1C`, for which the RP-LC retention time is 704 s.

As to `Cc1cc(C)c(S(=O)(=O)N2CCC(C(=O)NCc3csc(-c4ccccc4)n3)CC2)cc1C`, the RP-LC retention time is 1050 s. For `CCc1nc2ncc(-c3ccnc(N4CCN(C)CC4)n3)c(C)n2n1` the value was 562 s. For `O=C(Nc1nnc(-c2cccs2)o1)c1ccc([N+](=O)[O-])o1` the value was 677 s.

For the compound `Cc1cc(C)cc(Nc2nc(C)cc3nn(CC(=O)NC(C)C)c(=O)n23)c1`, the RP-LC retention time amounted to 949 s.

In the case of `C=CCOc1ccnc(-c2ccccc2)n1`, the RP-LC retention time amounted to 1110 s. With `Cc1cc(NC(=O)C(C)n2nc(-c3ccc(F)cc3)ccc2=O)on1` (stereo unspecified), the RP-LC retention time stood at 735 s. For `CCOc1cc(-c2ccc(F)cc2)nc2ccc(NS(=O)(=O)c3ccc(C#N)cc3)cc12` the value was 801 s; for `Cc1ccc(F)cc1NC(=O)Cn1c(=O)nc(N2CCCCC2)c2ccccc21`, 841 s. Turning to `O=C(c1c(F)cccc1F)N1CCN=C1N1CCN(c2cccc(Cl)c2)CC1`, the RP-LC retention time amounted to 765 s. For `O=C(NCCc1cnc[nH]1)c1cc(-c2cccnc2)nc2ccccc12` the value was 566 s; for `Cc1cccc(-n2c(=O)c3c(cc(C)n3C)n(CC(=O)Nc3cccc(Br)c3)c2=O)c1`, 962 s; for `Cc1noc(C)c1S(=O)(=O)N1CCc2nc[nH]c2C1`, 570 s. To `CCCNC(=O)N(C1CCOCC1)C1CCN(S(=O)(=O)c2ccccc2CC)CC1` belongs 899 s; to `Cc1cc(NC(=O)NCCCSc2nc3ccccc3s2)no1`, 805 s. The compound `Cc1cccc(S(=O)(=O)N2CCC(C)(C(=O)NCc3ccc(F)cc3)CC2)c1` yielded an RP-LC retention time of 936 s.

With `O=C1COc2cc(Cl)ccc2N1Cc1nc(-c2cccc(F)c2)no1`, the RP-LC retention time amounted to 1100 s. For `O=C(NCc1ccc2c(c1)OCO2)c1ccc2c(c1)N(Cc1ccccc1)C(=O)CO2` the value was 857 s. Take `Cc1nn(C(C)C(=O)NCCCN2CCCC2)c(=O)c2nn(-c3ccccc3)c(C)c12` (stereo unspecified): the RP-LC retention time came to 614 s.

Compound `Cc1ccc(CNC(=O)CCC2CCCN(S(=O)(=O)c3ccccc3C)C2)cc1` (stereo unspecified) had an RP-LC retention time of 1010 s. To `CC(C)C(=O)Nc1ccc2ncnc(N3CCCC3)c2c1` belongs 591 s; to `Cc1ccsc1CN1CCc2oc(C)c(C(=O)N3CCOCC3)c2C1`, 536 s.
